Results from patent US20150164762A1, “USE OF ETHANOLAMINE PHOSPHATE” (priority 2012, published 2015).

Tested on: BEAS-2B
Test: Comprehensive gene expression analysis with Whole Human Genome DNA microarray after EP treatment
Format: cell-based
Experimental: Cells of the established normal human airway epithelial cell line BEAS-2B were used in the experiment. These cells were expansively cultured in 10% FBS RPMI-1640, and seeded at a density of 1×10^5/cm^2 on a 24-well plate. After 24 hours 0.1% FBS RPMI-1640 was substituted, and EP was administered to a final concentration of 0 or 1 mM (n=4). After 24 hours, the cells were used as the DNA microarray samples. RNA was extracted using a QIAGEN RNeasy Mini Kit. The DNA microarray test was performed using a Whole Human Genome DNA microarray 4×44K (Agilent), and the necessary labeling reagents and the like for the DNA microarray test were all from Agilent. The DNA microarray test data were analyzed statistically with GeneSpring (Agilent) dedicated analysis software, and gene function analysis (Gene Ontology (GO) analysis) was performed based on differential expression. The purpose of the GO analysis is to determine stochastically the degree to which gene sets with statistically significant differential expression correspond to known functional classification gene sets. […] The p-value is calculated according to the following formula.

NCCOP(=O)(O)O [EP, Ethanolamine phosphate]
expression of cytokines (1 mM EP, 24 h): reduced expression of many cytokines
R*: Ratio to control (AEN, probe A_23_P206077): 0.420 times
log2 [ratio] (AEN, probe A_23_P206077): −1.253
R*: Ratio to control (AGGF1, probe A_23_P250554): 1.523 times
log2 [ratio] (AGGF1, probe A_23_P250554): 0.607
R*: Ratio to control (AIFM2, probe A_32_P75094): 0.399 times
log2 [ratio] (AIFM2, probe A_32_P75094): −1.327
R*: Ratio to control (AIFM3, probe A_23_P258194): 0.590 times
log2 [ratio] (AIFM3, probe A_23_P258194): −0.761
R*: Ratio to control (ANXA2, probe A_23_P146644): 1.673 times
log2 [ratio] (ANXA2, probe A_23_P146644): 0.742
R*: Ratio to control (ANXA2, probe A_32_P94798): 1.614 times
log2 [ratio] (ANXA2, probe A_32_P94798): 0.691
R*: Ratio to control (APAF1, probe A_23_P36611): 0.420 times
log2 [ratio] (APAF1, probe A_23_P36611): −1.253
R*: Ratio to control (APPL1, probe A_24_P302833): 1.723 times
log2 [ratio] (APPL1, probe A_24_P302833): 0.785
R*: Ratio to control (ARHGAP24, probe A_23_P110151): 1.670 times
log2 [ratio] (ARHGAP24, probe A_23_P110151): 0.740
R*: Ratio to control (ARHGAP24, probe A_24_P388659): 1.745 times
log2 [ratio] (ARHGAP24, probe A_24_P388659): 0.803
R*: Ratio to control (ARHGEF6, probe A_23_P85024): 0.270 times
log2 [ratio] (ARHGEF6, probe A_23_P85024): −1.889
R*: Ratio to control (BAK1, probe A_23_P145357): 0.402 times
log2 [ratio] (BAK1, probe A_23_P145357): −1.313
R*: Ratio to control (BAX, probe A_23_P208706): 0.453 times
log2 [ratio] (BAX, probe A_23_P208706): −1.143
R*: Ratio to control (BAX, probe A_23_P346311): 0.511 times
log2 [ratio] (BAX, probe A_23_P346311): −0.969
R*: Ratio to control (BBC3, probe A_23_P382775): 0.315 times
log2 [ratio] (BBC3, probe A_23_P382775): −1.666
R*: Ratio to control (BBC3, probe A_24_P305312): 0.366 times
log2 [ratio] (BBC3, probe A_24_P305312): −1.452
R*: Ratio to control (BCAT1, probe A_24_P935986): 1.721 times
log2 [ratio] (BCAT1, probe A_24_P935986): 0.783
R*: Ratio to control (BCL2L11, probe A_24_P122921): 0.636 times
log2 [ratio] (BCL2L11, probe A_24_P122921): −0.652
R*: Ratio to control (BCL2L14, probe A_23_P128050): 0.594 times
log2 [ratio] (BCL2L14, probe A_23_P128050): −0.751
R*: Ratio to control (BCL10, probe A_23_P115286): 0.542 times
log2 [ratio] (BCL10, probe A_23_P115286): −0.883
R*: Ratio to control (BCL10, probe A_24_P19983): 0.571 times
log2 [ratio] (BCL10, probe A_24_P19983): −0.810
R*: Ratio to control (BIK, probe A_23_P404867): 0.298 times
log2 [ratio] (BIK, probe A_23_P404867): −1.748
R*: Ratio to control (BLOC1S2, probe A_23_P23960): 0.396 times
log2 [ratio] (BLOC1S2, probe A_23_P23960): −1.336
R*: Ratio to control (BLOC1S2, probe A_24_P295543): 0.384 times
log2 [ratio] (BLOC1S2, probe A_24_P295543): −1.381
R*: Ratio to control (BMP4, probe A_23_P54144): 1.820 times
log2 [ratio] (BMP4, probe A_23_P54144): 0.864
R*: Ratio to control (BNIP3, probe A_23_P138635): 0.374 times
log2 [ratio] (BNIP3, probe A_23_P138635): −1.418
R*: Ratio to control (BNIP3L, probe A_23_P134925): 0.633 times
log2 [ratio] (BNIP3L, probe A_23_P134925): −0.661
R*: Ratio to control (BTG1, probe A_23_P87560): 0.416 times
log2 [ratio] (BTG1, probe A_23_P87560): −1.265
R*: Ratio to control (C16orf5, probe A_23_P15247): 0.519 times
log2 [ratio] (C16orf5, probe A_23_P15247): −0.947
R*: Ratio to control (CASP1, probe A_23_P202978): 0.641 times
log2 [ratio] (CASP1, probe A_23_P202978): −0.642
R*: Ratio to control (CASP10, probe A_23_P209408): 0.552 times
log2 [ratio] (CASP10, probe A_23_P209408): −0.857
R*: Ratio to control (CASP10, probe A_24_P139993): 0.609 times
log2 [ratio] (CASP10, probe A_24_P139993): −0.716
R*: Ratio to control (CCBE1, probe A_23_P55544): 1.755 times
log2 [ratio] (CCBE1, probe A_23_P55544): 0.811
R*: Ratio to control (CCBE1, probe A_32_P171043): 1.890 times
log2 [ratio] (CCBE1, probe A_32_P171043): 0.918
R*: Ratio to control (CDKN1A, probe A_23_P59210): 0.439 times
log2 [ratio] (CDKN1A, probe A_23_P59210): −1.187
R*: Ratio to control (CDKN1A, probe A_24_P89457): 0.294 times
log2 [ratio] (CDKN1A, probe A_24_P89457): −1.768
R*: Ratio to control (CEBPB, probe A_23_P143242): 0.617 times
log2 [ratio] (CEBPB, probe A_23_P143242): −0.697
R*: Ratio to control (CEBPB, probe A_23_P411296): 0.383 times
log2 [ratio] (CEBPB, probe A_23_P411296): −1.385
R*: Ratio to control (CIDEC, probe A_23_P92025): 0.593 times
log2 [ratio] (CIDEC, probe A_23_P92025): −0.754
R*: Ratio to control (CKLF, probe A_23_P118061): 1.501 times
log2 [ratio] (CKLF, probe A_23_P118061): 0.586
R*: Ratio to control (CKLF, probe A_23_P206396): 1.601 times
log2 [ratio] (CKLF, probe A_23_P206396): 0.679
R*: Ratio to control (CKLF, probe A_24_P215804): 1.551 times
log2 [ratio] (CKLF, probe A_24_P215804): 0.633
R*: Ratio to control (CKS2, probe A_23_P71727): 1.510 times
log2 [ratio] (CKS2, probe A_23_P71727): 0.595
R*: Ratio to control (COL8A1, probe A_23_P69030): 1.999 times
log2 [ratio] (COL8A1, probe A_23_P69030): 0.999
R*: Ratio to control (COL8A1, probe A_23_P211762): 1.643 times
log2 [ratio] (COL8A1, probe A_23_P211762): 0.716
R*: Ratio to control (COL8A1, probe A_24_P139152): 1.703 times
log2 [ratio] (COL8A1, probe A_24_P139152): 0.768
R*: Ratio to control (DDIT3, probe A_23_P21134): 0.210 times
log2 [ratio] (DDIT3, probe A_23_P21134): −2.249
R*: Ratio to control (FGF9, probe A_23_P105803): 1.606 times
log2 [ratio] (FGF9, probe A_23_P105803): 0.684
R*: Ratio to control (GLI2, probe A_23_P500034): 2.060 times
log2 [ratio] (GLI2, probe A_23_P500034): 1.043
R*: Ratio to control (HAND2, probe A_23_P373521): 1.971 times
log2 [ratio] (HAND2, probe A_23_P373521): 0.979
R*: Ratio to control (IFI16, probe A_23_P217866): 0.585 times
log2 [ratio] (IFI16, probe A_23_P217866): −0.773
R*: Ratio to control (IFNG, probe A_23_P151294): 0.611 times
log2 [ratio] (IFNG, probe A_23_P151294): −0.710
R*: Ratio to control (IKBIP, probe A_23_P53467): 0.626 times
log2 [ratio] (IKBIP, probe A_23_P53467): −0.675
R*: Ratio to control (IKBIP, probe A_23_P303210): 0.468 times
log2 [ratio] (IKBIP, probe A_23_P303210): −1.095
R*: Ratio to control (IL1A, probe A_23_P72096): 0.216 times
log2 [ratio] (IL1A, probe A_23_P72096): −2.211
R*: Ratio to control (KNG1, probe A_32_P230808): 0.358 times
log2 [ratio] (KNG1, probe A_32_P230808): −1.484
R*: Ratio to control (LEPR, probe A_24_P231104): 1.659 times
log2 [ratio] (LEPR, probe A_24_P231104): 0.730
R*: Ratio to control (LOX, probe A_23_P122216): 1.637 times
log2 [ratio] (LOX, probe A_23_P122216): 0.711
R*: Ratio to control (MAP3K10, probe A_24_P284523): 0.570 times
log2 [ratio] (MAP3K10, probe A_24_P284523): −0.810
R*: Ratio to control (MAPRE2, probe A_23_P89835): 1.538 times
log2 [ratio] (MAPRE2, probe A_23_P89835): 0.621
R*: Ratio to control (MAPRE2, probe A_24_P193911): 1.666 times
log2 [ratio] (MAPRE2, probe A_24_P193911): 0.736
R*: Ratio to control (MMP2, probe A_23_P163787): 1.578 times
log2 [ratio] (MMP2, probe A_23_P163787): 0.658
R*: Ratio to control (MVC, probe A_24_P38363): 1.686 times
log2 [ratio] (MVC, probe A_24_P38363): 0.754
R*: Ratio to control (NLRP1, probe A_23_P89550): 0.483 times
log2 [ratio] (NLRP1, probe A_23_P89550): −1.048
R*: Ratio to control (NLRP1, probe A_24_P83615): 0.558 times
log2 [ratio] (NLRP1, probe A_24_P83615): −0.841
R*: Ratio to control (NR2F2, probe A_23_P88589): 1.662 times
log2 [ratio] (NR2F2, probe A_23_P88589): 0.733
R*: Ratio to control (NR2F2, probe A_24_P313354): 1.746 times
log2 [ratio] (NR2F2, probe A_24_P313354): 0.804
R*: Ratio to control (NR4A1, probe A_23_P128230): 0.302 times
log2 [ratio] (NR4A1, probe A_23_P128230): −1.727
R*: Ratio to control (NRP1, probe A_24_P135322): 1.664 times
log2 [ratio] (NRP1, probe A_24_P135322): 0.735
R*: Ratio to control (NRP1, probe A_24_P928052): 1.990 times
log2 [ratio] (NRP1, probe A_24_P928052): 0.993
R*: Ratio to control (NTF3, probe A_23_P360797): 0.492 times
log2 [ratio] (NTF3, probe A_23_P360797): −1.024
R*: Ratio to control (NTRK1, probe A_23_P34804): 0.261 times
log2 [ratio] (NTRK1, probe A_23_P34804): −1.936
R*: Ratio to control (OBSCN, probe A_24_P273157): 0.654 times
log2 [ratio] (OBSCN, probe A_24_P273157): −0.613
